# According to ChEMBL document CHEMBL1201862, “PubChem BioAssay data set” (2004):
#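 Exposure lasted 48 hours, with cells grown in 96-well plates and compounds tested at five concentrations. Here, GI50 denotes the concentration required for 50% inhibition of growth.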 Active and inactive are the calls of the source. No stated cut-off is given here; in the data, active = GI50 up to about 1.1 µM and inactive = higher.
# Key:
# Experiment in all cases: DTP human tumour cell line panel, 48 h
# HCT-116 = test system: HCT-116
# SR = test system: SR
# BT-549 = test system: BT-549
# SF-539 = test system: SF-539
# MCF7 = test system: MCF7
# EKVX = test system: EKVX
# DU-145 = test system: DU-145
# SK-OV-3 = test system: SK-OV-3
# SK-MEL-5 = test system: SK-MEL-5
# ACHN = test system: ACHN
# A498 = test system: A498
# UACC-62 = test system: UACC-62
# OVCAR-3 = test system: OVCAR-3
# A549 = test system: A549
# HL-60 = test system: HL-60
# CAKI-1 = test system: CAKI-1
# HCT-15 = test system: HCT-15
# UO-31 = test system: UO-31
# SF-268 = test system: SF-268
# HOP-92 = test system: HOP-92
# SN12C = test system: SN12C
# KM12 = test system: KM12
# HT-29 = test system: HT-29
# HOP-62 = test system: HOP-62
# SNB-19 = test system: SNB-19
# IGROV-1 = test system: IGROV-1
# TK-10 = test system: TK-10
# UACC-257 = test system: UACC-257
# RPMI-8226 = test system: RPMI-8226
# CCRF-CEM = test system: CCRF-CEM
# NCI-H23 = test system: NCI-H23
# SW-620 = test system: SW-620
# SK-MEL-2 = test system: SK-MEL-2
# Hs-578T = test system: Hs-578T
# OVCAR-8 = test system: OVCAR-8
# PC-3 = test system: PC-3
# Malme-3M = test system: Malme-3M
# U-251 = test system: U-251
# NCI-H522 = test system: NCI-H522
# M14 = test system: M14
# 786-0 = test system: 786-0
# SNB-75 = test system: SNB-75
# MDA-MB-231 = test system: MDA-MB-231
# RXF 393 = test system: RXF 393
# K562 = test system: K562
# NCI/ADR-RES = test system: NCI/ADR-RES
# SK-MEL-28 = test system: SK-MEL-28
# NCI-H460 = test system: NCI-H460
# T47D = test system: T47D
# MOLT-4 = test system: MOLT-4
# OVCAR-4 = test system: OVCAR-4
# OVCAR-5 = test system: OVCAR-5
# LOX IMVI = test system: LOX IMVI
# COLO 205 = test system: COLO 205
# MDA-MB-435 = test system: MDA-MB-435
# NCI-H226 = test system: NCI-H226
# HCC 2998 = test system: HCC 2998
# MDA-N = test system: MDA-N
# SF-295 = test system: SF-295
structure (smiles),measurement,setting,value
Cc1cc(C)nc(NS(=O)(=O)c2ccc(NC(=O)c3ccc4nc5ccccc5c(Nc5ccc(S(=O)(=O)Nc6nc(C)cc(C)n6)cc5)c4c3)cc2)n1,GI50,HCT-116,57 µM (inactive)
same,GI50,SR,39.7 µM (inactive)
same,GI50,BT-549,19 µM (inactive)
same,GI50,SF-539,88.3 µM (inactive)
same,GI50,MCF7,37.8 µM (inactive)
same,GI50,EKVX,> 100 µM (inactive)
same,GI50,DU-145,> 100 µM (inactive)
same,GI50,SK-OV-3,59.2 µM (inactive)
same,GI50,SK-MEL-5,> 100 µM (inactive)
same,GI50,ACHN,> 100 µM (inactive)
same,GI50,A498,> 100 µM (inactive)
same,GI50,UACC-62,66.4 µM (inactive)
same,GI50,OVCAR-3,> 100 µM (inactive)
same,GI50,A549,> 100 µM (inactive)
same,GI50,HL-60,33 µM (inactive)
same,GI50,CAKI-1,> 100 µM (inactive)
same,GI50,HCT-15,> 100 µM
same,GI50,UO-31,> 100 µM (inactive)
same,GI50,SF-268,58.6 µM (inactive)
same,GI50,HOP-92,23 µM (inactive)
same,GI50,SN12C,46.5 µM (inactive)
same,GI50,KM12,30.3 µM (inactive)
same,GI50,HT-29,64.9 µM (inactive)
same,GI50,HOP-62,> 100 µM (inactive)
same,GI50,SNB-19,> 100 µM (inactive)
same,GI50,IGROV-1,52.5 µM (inactive)
same,GI50,TK-10,> 100 µM (inactive)
same,GI50,UACC-257,> 100 µM (inactive)
same,GI50,RPMI-8226,37.2 µM (inactive)
same,GI50,CCRF-CEM,36.6 µM (inactive)
same,GI50,NCI-H23,34 µM (inactive)
same,GI50,SW-620,41.4 µM (inactive)
same,GI50,SK-MEL-2,36.2 µM (inactive)
same,GI50,Hs-578T,69.7 µM (inactive)
same,GI50,OVCAR-8,> 100 µM (inactive)
same,GI50,PC-3,59.7 µM (inactive)
same,GI50,Malme-3M,67.5 µM (inactive)
same,GI50,U-251,35.3 µM (inactive)
same,GI50,NCI-H522,25.5 µM (inactive)
same,GI50,M14,> 100 µM (inactive)
same,GI50,786-0,> 100 µM (inactive)
same,GI50,SNB-75,> 100 µM (inactive)
same,GI50,MDA-MB-231,20.8 µM (inactive)
same,GI50,RXF 393,34.9 µM (inactive)
same,GI50,K562,38 µM (inactive)
same,GI50,NCI/ADR-RES,> 100 µM (inactive)
same,GI50,SK-MEL-28,> 100 µM (inactive)
same,GI50,NCI-H460,88.5 µM (inactive)
same,GI50,T47D,46.7 µM (inactive)
same,GI50,MOLT-4,28.5 µM (inactive)
same,GI50,OVCAR-4,68.7 µM (inactive)
same,GI50,OVCAR-5,> 100 µM (inactive)
same,GI50,LOX IMVI,19.1 µM (inactive)
same,GI50,COLO 205,> 100 µM (inactive)
same,GI50,MDA-MB-435,> 100 µM (inactive)
same,GI50,NCI-H226,> 100 µM (inactive)
same,GI50,HCC 2998,61.8 µM (inactive)
same,GI50,MDA-N,91 µM (inactive)
same,GI50,SF-295,> 100 µM (inactive)
O=c1[nH]c(C23CC4CC(CC(C4)C2)C3)cc2c1c(=O)oc1ccccc12,GI50,HCT-116,3.06 µM (inactive)
same,GI50,SR,0.366 µM (active)
same,GI50,BT-549,11.2 µM (inactive)
same,GI50,SF-539,4.53 µM (inactive)
same,GI50,MCF7,6 µM (inactive)
same,GI50,EKVX,0.32 µM (active)
same,GI50,DU-145,6.31 µM (inactive)
same,GI50,SK-OV-3,3.25 µM (inactive)
same,GI50,SK-MEL-5,4.6 µM (inactive)
same,GI50,ACHN,2.92 µM (inactive)
same,GI50,A498,2.26 µM (inactive)
same,GI50,UACC-62,13.4 µM (inactive)
same,GI50,OVCAR-3,4.42 µM (inactive)
same,GI50,A549,2.83 µM (inactive)
same,GI50,HL-60,29.4 µM (inactive)
same,GI50,CAKI-1,1.86 µM (inactive)
same,GI50,HCT-15,13.8 µM
same,GI50,UO-31,1.61 µM (inactive)
same,GI50,SF-268,0.944 µM (active)
same,GI50,HOP-92,1.04 µM (active)
same,GI50,SN12C,9.18 µM (inactive)
same,GI50,KM12,14.5 µM (inactive)
same,GI50,HT-29,3.52 µM (inactive)
same,GI50,HOP-62,2.7 µM (inactive)
same,GI50,SNB-19,4.98 µM (inactive)
same,GI50,IGROV-1,2.32 µM (inactive)
same,GI50,TK-10,3.43 µM (inactive)
same,GI50,UACC-257,19.8 µM (inactive)
same,GI50,RPMI-8226,3.08 µM (inactive)
same,GI50,CCRF-CEM,12.5 µM (inactive)
same,GI50,NCI-H23,9.57 µM (inactive)
same,GI50,SW-620,7.59 µM (inactive)
same,GI50,SK-MEL-2,13.8 µM (inactive)
same,GI50,Hs-578T,1.1 µM (active)
same,GI50,OVCAR-8,3.19 µM (inactive)
same,GI50,PC-3,3.27 µM (inactive)
same,GI50,Malme-3M,3.65 µM (inactive)
same,GI50,U-251,2.53 µM (inactive)
same,GI50,NCI-H522,2.58 µM (inactive)
same,GI50,M14,8.65 µM (inactive)
same,GI50,786-0,1.61 µM (inactive)
same,GI50,SNB-75,2.53 µM (inactive)
same,GI50,MDA-MB-231,3.4 µM (inactive)
same,GI50,RXF 393,2.35 µM (inactive)
same,GI50,K562,4.07 µM (inactive)
same,GI50,NCI/ADR-RES,3.96 µM (inactive)
same,GI50,SK-MEL-28,5.86 µM (inactive)
same,GI50,NCI-H460,2.62 µM (inactive)
same,GI50,T47D,8.89 µM (inactive)
same,GI50,MOLT-4,10.5 µM (inactive)
same,GI50,OVCAR-4,3.15 µM (inactive)
same,GI50,OVCAR-5,4.82 µM (inactive)
same,GI50,LOX IMVI,2.95 µM (inactive)
same,GI50,COLO 205,10 µM (inactive)
same,GI50,MDA-MB-435,13.4 µM (inactive)
same,GI50,NCI-H226,2.19 µM (inactive)
same,GI50,HCC 2998,5.31 µM (inactive)
same,GI50,MDA-N,12.8 µM (inactive)
same,GI50,SF-295,3.71 µM (inactive)
